From publication PMC6858497 (The Journal of physiology, 2019) come the findings set out here.

Where “and” joins values, the source holds several entries; their conditions need not be identical. Equal entries are not always repeated.

One experiment concerns the target GluN1–1a/2B (Rattus norvegicus, UniProt P35439+Q00960). As to the kind of experiment: Two-electrode voltage-clamp recordings, Xenopus oocytes. The class given is cell-based. The conditions noted are these: for nH (Hill coefficient): inhibition.
For another experiment, the target named is GluN1–1a/2BC1/2DC2 (Rattus norvegicus, UniProt P35439+Q00959+Q00960+Q62645, A876H/F846L/G856D/H848F/K857R/M851T/M860L/Q845K/R869K/V861L/V866F). The description is as above. The class given is cell-based. The conditions noted are these: for nH (Hill coefficient): inhibition; for Relative Imin: fitted minimal response relative to control.
The test system of experiment [1] is NMDAR-EPSCs in hippocampal CA1 pyramidal cells. As to the kind of experiment: Whole-cell patch-clamp of NMDAR-EPSCs in acute hippocampal slices. The format is cell-based, mouse. Particulars: for NMDAR-EPSC peak amplitude, % of baseline: 10 μM, +40 mV, P21–28 slices; for effect on EPSC decay time: treatment versus baseline, paired t test, 10 μM (spermine 100 μM).

In experiment [2] the test system is NMDAR-EPSCs in hippocampal interneurons (CA1 s.r./s.l.m.). The description is as above. The format is cell-based, mouse. The conditions noted are these: for NMDAR-EPSC peak amplitude, % of baseline: 10 μM, +40 mV, P21–28 slices.
For another experiment, the target named is GluN1–1a/2D (Rattus norvegicus, UniProt P35439+Q62645). The experiment can be described thus: Two-electrode voltage-clamp recordings, Xenopus oocytes. Particulars: for nH (Hill coefficient): inhibition. The format is cell-based. Background: Two-electrode voltage clamp is typically applied to oocytes expressing channels or transporters.
Chain of GluN1–1a/2D (Q62645 28-1323, other chains not shown): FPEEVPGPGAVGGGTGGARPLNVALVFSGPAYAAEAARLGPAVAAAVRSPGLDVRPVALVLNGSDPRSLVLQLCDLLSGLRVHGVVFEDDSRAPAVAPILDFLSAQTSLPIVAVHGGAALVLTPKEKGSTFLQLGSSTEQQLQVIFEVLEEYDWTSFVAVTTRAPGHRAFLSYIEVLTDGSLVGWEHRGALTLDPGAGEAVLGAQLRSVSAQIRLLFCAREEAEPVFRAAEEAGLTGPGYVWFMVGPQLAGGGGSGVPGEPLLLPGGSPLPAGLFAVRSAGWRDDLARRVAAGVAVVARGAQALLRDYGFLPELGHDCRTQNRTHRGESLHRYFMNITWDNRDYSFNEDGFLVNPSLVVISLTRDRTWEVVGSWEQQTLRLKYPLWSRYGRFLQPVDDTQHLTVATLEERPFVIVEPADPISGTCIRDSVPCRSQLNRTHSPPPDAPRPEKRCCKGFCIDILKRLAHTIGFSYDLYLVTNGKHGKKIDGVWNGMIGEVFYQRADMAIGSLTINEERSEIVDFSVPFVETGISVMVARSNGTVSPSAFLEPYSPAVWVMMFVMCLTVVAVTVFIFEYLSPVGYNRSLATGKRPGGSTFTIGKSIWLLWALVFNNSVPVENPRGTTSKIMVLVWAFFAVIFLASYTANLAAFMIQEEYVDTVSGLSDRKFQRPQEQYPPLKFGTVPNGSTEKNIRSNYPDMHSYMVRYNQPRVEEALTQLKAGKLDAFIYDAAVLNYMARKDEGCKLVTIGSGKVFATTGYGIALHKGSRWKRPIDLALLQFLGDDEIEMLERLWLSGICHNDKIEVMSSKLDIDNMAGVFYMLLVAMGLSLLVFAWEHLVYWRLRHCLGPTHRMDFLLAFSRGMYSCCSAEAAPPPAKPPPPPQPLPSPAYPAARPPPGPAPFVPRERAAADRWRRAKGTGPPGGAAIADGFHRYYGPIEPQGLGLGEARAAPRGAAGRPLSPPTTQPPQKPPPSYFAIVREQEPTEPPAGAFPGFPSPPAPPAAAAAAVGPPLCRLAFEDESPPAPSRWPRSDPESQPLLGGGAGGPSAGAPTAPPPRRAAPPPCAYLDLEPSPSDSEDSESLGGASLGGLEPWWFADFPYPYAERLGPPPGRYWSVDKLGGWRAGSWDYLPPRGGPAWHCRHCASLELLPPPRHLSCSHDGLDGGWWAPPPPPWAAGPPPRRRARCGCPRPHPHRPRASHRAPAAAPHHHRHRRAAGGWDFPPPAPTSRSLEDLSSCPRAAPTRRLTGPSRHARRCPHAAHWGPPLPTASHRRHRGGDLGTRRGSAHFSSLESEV
[3] abbreviates: isoform 1a, 300 μM glutamate plus 100 μM glycine.
Setting [4] is: fitted minimal response relative to control, isoform 1a.
Where [5] appears, read: Mg2+ block, holding potential −40 mV.
Setting [6] is: Mg2+ block, holding potential −60 mV.
The mark [7] stands for this setting: Mg2+ block, holding potential −80 mV.
The mark [8] stands for this setting: Mg2+ block, holding potential −100 mV.
[9] abbreviates: Woodhull model, current-voltage relationship with 0.1 mM Mg2+.
[10] abbreviates: IC50, channel block, −20 mV, + 1 mM Mg2+.
Where [11] appears, read: IC50, channel block, −20 mV, control (absence of Mg2+).
[12] abbreviates: IC50, channel block, −40 mV, + 1 mM Mg2+.
Setting [13] is: IC50, channel block, −40 mV, control (absence of Mg2+).
Setting [14] is: IC50, channel block, −60 mV, + 1 mM Mg2+.
Where [15] appears, read: IC50, channel block, −60 mV, control (absence of Mg2+).
The mark [16] stands for this setting: channel block, −20 mV, + 1 mM Mg2+.
The mark [17] stands for this setting: channel block, −20 mV, control (absence of Mg2+).
Where [18] appears, read: channel block, −40 mV, + 1 mM Mg2+.
[19] abbreviates: channel block, −40 mV, control (absence of Mg2+).
Where [20] appears, read: channel block, −60 mV, + 1 mM Mg2+.
Where [21] appears, read: channel block, −60 mV, control (absence of Mg2+).

Chain of GluN1–1a/2B (Q00960 27-1482, other chains not shown): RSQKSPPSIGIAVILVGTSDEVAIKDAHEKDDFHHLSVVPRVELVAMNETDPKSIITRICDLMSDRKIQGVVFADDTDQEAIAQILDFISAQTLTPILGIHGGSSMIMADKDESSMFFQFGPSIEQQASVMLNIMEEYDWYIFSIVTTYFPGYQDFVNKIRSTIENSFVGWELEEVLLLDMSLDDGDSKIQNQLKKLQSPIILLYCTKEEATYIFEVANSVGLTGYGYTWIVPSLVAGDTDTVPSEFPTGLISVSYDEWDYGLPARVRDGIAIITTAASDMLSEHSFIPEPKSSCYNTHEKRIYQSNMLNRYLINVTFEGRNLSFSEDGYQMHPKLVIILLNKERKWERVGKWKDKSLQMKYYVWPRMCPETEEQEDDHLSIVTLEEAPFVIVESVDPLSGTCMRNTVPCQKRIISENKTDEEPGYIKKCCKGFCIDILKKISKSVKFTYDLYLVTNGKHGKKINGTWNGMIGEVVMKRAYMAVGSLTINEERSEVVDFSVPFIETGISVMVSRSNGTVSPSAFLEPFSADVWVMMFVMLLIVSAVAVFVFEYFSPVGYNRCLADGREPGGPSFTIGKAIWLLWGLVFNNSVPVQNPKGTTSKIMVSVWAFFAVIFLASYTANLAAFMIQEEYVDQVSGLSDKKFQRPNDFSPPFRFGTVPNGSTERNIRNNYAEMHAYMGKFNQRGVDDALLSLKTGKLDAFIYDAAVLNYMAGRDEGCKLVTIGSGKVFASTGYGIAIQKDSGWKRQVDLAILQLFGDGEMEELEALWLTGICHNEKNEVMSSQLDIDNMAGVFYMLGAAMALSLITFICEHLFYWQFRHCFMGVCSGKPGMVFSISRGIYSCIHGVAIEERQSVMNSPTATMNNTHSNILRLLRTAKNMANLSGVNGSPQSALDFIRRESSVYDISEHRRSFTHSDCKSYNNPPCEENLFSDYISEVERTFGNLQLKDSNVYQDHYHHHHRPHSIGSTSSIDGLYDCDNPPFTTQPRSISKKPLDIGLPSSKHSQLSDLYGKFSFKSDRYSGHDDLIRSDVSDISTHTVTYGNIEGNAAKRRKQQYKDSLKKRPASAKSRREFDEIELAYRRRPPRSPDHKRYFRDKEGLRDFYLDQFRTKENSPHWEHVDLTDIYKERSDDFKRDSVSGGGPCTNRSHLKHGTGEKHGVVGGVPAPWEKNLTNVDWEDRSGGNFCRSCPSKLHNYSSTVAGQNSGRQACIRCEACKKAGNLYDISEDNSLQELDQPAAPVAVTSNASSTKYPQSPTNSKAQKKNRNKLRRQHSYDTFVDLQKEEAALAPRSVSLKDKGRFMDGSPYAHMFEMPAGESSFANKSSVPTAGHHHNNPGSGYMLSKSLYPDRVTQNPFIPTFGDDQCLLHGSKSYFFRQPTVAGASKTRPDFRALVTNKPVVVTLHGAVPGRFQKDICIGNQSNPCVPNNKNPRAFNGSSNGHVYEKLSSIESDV

Consider `C[C@@H]([C@@H](O)c1ccc(O)cc1)N1CCC(O)(c2ccccc2)CC1` [CP-101,606], for which the “nH (Hill coefficient)” value on GluN1–1a/2B (isoform 1a) and on GluN1–1a/2BC1/2DC2 (isoform 1a) was 1.4 each time. For the same compound, the maximal inhibition is on record as ~ 95% on GluN1–1a/2B (isoform 1a) and ~ 65% at GluN1–1a/2BC1/2DC2 (isoform 1a). For the same compound, the “NMDAR-EPSC peak amplitude, % of baseline” value is on record as 50 ± 3 % of baseline in experiment [1] and 30 ± 3 % of baseline in experiment [2]. Also, the “effect on EPSC decay time” value in experiment [1] is given as “significantly accelerated”; in experiment [2] (treatment versus baseline, paired t test, 10 μM (spermine 100 μM)) it was “unchanged”.
`Cc1ccc2[nH]c(=O)c(C3=NN(C(=O)CCC(=O)O)C(c4ccc(Br)cc4)C3)c(-c3ccccc3)c2c1` (centres unmarked) [DQP-1105]: the “Relative Imin” value is 58 ± 2% at GluN1–1a/2B (at 30 μM, isoform 1a); −8 ± 2 % at GluN1–1a/2BC1/2DC2 (isoform 1a); −3 ± 1% on GluN1–1a/2D (setting [4]). The “nH (Hill coefficient)” value at GluN1–1a/2BC1/2DC2 (isoform 1a) turned out to be 0.8; at GluN1–1a/2D (isoform 1a) it was 1.0. The maximal inhibition on GluN1–1a/2BC1/2DC2 (isoform 1a) and at GluN1–1a/2D (isoform 1a) was ~ 100% each time. Further, the IC50 at GluN1–1a/2BC1/2DC2 (setting [3]) is 13 ± 1 µM; on GluN1–1a/2D (setting [3]), 2.2 ± 0.1 µM.
On to `Cc1nccn1Cc1cc(-c2ccc(F)c(C(F)F)c2)cnn1.Cl.Cl` [EVT-101], for which the “Relative Imin” value at GluN1–1a/2B (setting [4]) is 3 ± 1%; at GluN1–1a/2BC1/2DC2 (isoform 1a), 37 ± 2 %; on GluN1–1a/2D (at 3 μM, isoform 1a), 92 ± 2%. Moreover, the results for the “nH (Hill coefficient)” value at GluN1–1a/2B (isoform 1a) and at GluN1–1a/2BC1/2DC2 (isoform 1a) were 1.0 and 1.1, respectively. For the same compound, the maximal inhibition on GluN1–1a/2B (isoform 1a) was ~ 95%; on GluN1–1a/2BC1/2DC2 (isoform 1a), ~ 65%. Further, the results for the IC50 at GluN1–1a/2B (setting [3]) and at GluN1–1a/2BC1/2DC2 (setting [3]) were 0.009 ± 0.001 µM and 0.012 ± 0.001 µM, respectively.
In the case of `Cc1ncc(CNC(=O)c2cnc(CNS(=O)(=O)c3ccc(F)c(Cl)c3)cn2)s1` [MPX-004], in experiment [1], the “NMDAR-EPSC peak amplitude, % of baseline” value is 45 ± 2 % of baseline and the “effect on EPSC decay time” value is “significantly slowed”. In addition, the “NMDAR-EPSC peak amplitude, % of baseline” value in experiment [2] is 98 ± 5 % of baseline.
For the compound `[Mg+2]` [Mg^2+], the half-maximal inhibitory concentration (IC50) against GluN1–1a/2B (setting [5]) is 161 ± 11.8 µM; against GluN1–1a/2B (setting [6]), 26 µM and 25.5 µM; at GluN1–1a/2B (setting [7]) it was 5.5 ± 0.4 µM; against GluN1–1a/2B (setting [8]), 1.6 ± 0.3 µM; against GluN1–1a/2BC1/2DC2 (setting [5]), 518 ± 14.3 µM; at GluN1–1a/2BC1/2DC2 (setting [6]) it was 80 µM and 79.2 µM. For the same compound, the IC50 was 19.9 ± 0.8 µM on GluN1–1a/2BC1/2DC2 (setting [7]); 6.8 ± 0.5 µM on GluN1–1a/2BC1/2DC2 (setting [8]); 937 ± 85.9 µM on GluN1–1a/2D (setting [5]); 254 µM against GluN1–1a/2D (setting [6]); 72.5 ± 1.8 µM on GluN1–1a/2D (setting [7]); 25.1 ± 0.4 µM on GluN1–1a/2D (setting [8]). The nH on GluN1–1a/2B (setting [5]) came to 0.9; on GluN1–1a/2B (setting [6]), 1.0; on GluN1–1a/2B (setting [7]), 1.0; on GluN1–1a/2B (setting [8]) it was 0.9; at GluN1–1a/2BC1/2DC2 (setting [5]) it was 0.8; on GluN1–1a/2BC1/2DC2 (setting [6]) it was 0.9. For the same compound, the nH was found to be 0.9 at GluN1–1a/2BC1/2DC2 (setting [7]); 0.9 at GluN1–1a/2BC1/2DC2 (setting [8]); 1.0 at GluN1–1a/2D (setting [5]); 1.0 on GluN1–1a/2D (setting [6]); 1.0 at GluN1–1a/2D (setting [7]); 1.0 on GluN1–1a/2D (setting [8]). In addition, the “δ, fraction of the membrane electric field sensed by the blocking site” value at GluN1–1a/2B (Woodhull model, 0.1 mM Mg2+) amounted to 1.08; on GluN1–1a/2BC1/2DC2 (Woodhull model, 0.1 mM Mg2+), 0.95; at GluN1–1a/2D (Woodhull model, 0.1 mM Mg2+), 0.82. Besides, the “K0.5(0 mV), Mg2+ concentration producing half-maximal block at 0 mV” value on GluN1–1a/2B (setting [9]) was 4.5 mM; on GluN1–1a/2BC1/2DC2 (setting [9]), 6.6 mM; on GluN1–1a/2D (setting [9]), 11 mM.
For `COc1ccc2nc(/C=C/c3cccc([N+](=O)[O-])c3)n(-c3ccc(C(=O)O)cc3)c(=O)c2c1` [QNZ-46], the “Relative Imin” value on GluN1–1a/2B (at 30 μM, isoform 1a) is given as 76 ± 1%; at GluN1–1a/2BC1/2DC2 (isoform 1a), 4 ± 1 %; at GluN1–1a/2D (setting [4]), −3 ± 1%. In addition, the “nH (Hill coefficient)” value at GluN1–1a/2BC1/2DC2 (isoform 1a) and on GluN1–1a/2D (isoform 1a) was 1.0 in each case. Also, the maximal inhibition at GluN1–1a/2BC1/2DC2 (isoform 1a) and at GluN1–1a/2D (isoform 1a) was ~ 100% in each case. Moreover, the IC50 was 10 ± 1 µM at GluN1–1a/2BC1/2DC2 (setting [3]) and 2.7 ± 0.1 µM on GluN1–1a/2D (setting [3]).
Turning to `CNC1(c2ccccc2Cl)CCCCC1=O` (centres unmarked) [ketamine], the IC50 on GluN1–1a/2B (setting [10]) amounted to 16.3 ± 1.9 µM; against GluN1–1a/2B (setting [11]), 4.2 ± 0.7 µM; on GluN1–1a/2B (setting [12]), 19.2 ± 2 µM; on GluN1–1a/2B (setting [13]), 2.1 ± 0.3 µM; on GluN1–1a/2B (setting [14]), 17 ± 2 µM; against GluN1–1a/2B (setting [15]) it was 1 ± 0.1 µM. Further, the IC50 on GluN1–1a/2D (setting [10]) was 4.5 ± 0.5 µM; against GluN1–1a/2D (setting [11]) it was 3.8 ± 0.2 µM; on GluN1–1a/2D (setting [12]) it was 3.5 ± 0.5 µM; on GluN1–1a/2D (setting [13]) it was 2.4 ± 0.2 µM; on GluN1–1a/2D (setting [14]), 2.6 ± 0.4 µM; against GluN1–1a/2D (setting [15]), 1.3 ± 0.1 µM. The nH on GluN1–1a/2B (setting [16]) stood at 1.2; on GluN1–1a/2B (setting [17]), 1.0; on GluN1–1a/2B (setting [18]), 1.3; at GluN1–1a/2B (setting [19]), 1.0; on GluN1–1a/2B (setting [20]) it was 1.1; on GluN1–1a/2B (setting [21]), 1.0. Further, the nH on GluN1–1a/2D (setting [16]) is 1.0; on GluN1–1a/2D (setting [17]), 1.0; at GluN1–1a/2D (setting [18]), 1.0; at GluN1–1a/2D (setting [19]), 1.0; on GluN1–1a/2D (setting [20]), 1.1; on GluN1–1a/2D (setting [21]) it was 1.0.
In the case of `CC12CC3CC(C)(C1)CC(N)(C3)C2` [memantine], the nH on GluN1–1a/2B (setting [16]) was 1.1; on GluN1–1a/2B (setting [17]) it was 0.9; on GluN1–1a/2B (setting [18]), 1.0; on GluN1–1a/2B (setting [19]), 1.0; on GluN1–1a/2B (setting [20]), 1.1; on GluN1–1a/2B (setting [21]), 1.0. Besides, the nH at GluN1–1a/2BC1/2DC2 (setting [16]) was determined as 1.0; on GluN1–1a/2BC1/2DC2 (setting [17]) it was 1.1; at GluN1–1a/2BC1/2DC2 (setting [18]) it was 0.9; at GluN1–1a/2BC1/2DC2 (setting [19]) it was 1.0; at GluN1–1a/2BC1/2DC2 (setting [20]) it was 0.9; at GluN1–1a/2BC1/2DC2 (setting [21]), 1.0. Also, the nH at GluN1–1a/2D (setting [16]) amounted to 1.0; on GluN1–1a/2D (setting [17]), 1.1; on GluN1–1a/2D (setting [18]), 1.0; on GluN1–1a/2D (setting [19]), 1.1; on GluN1–1a/2D (setting [20]), 1.0; at GluN1–1a/2D (setting [21]), 1.1.

One may read the IC50 as the midpoint of a concentration-inhibition curve.
